The structures appear in SMILES notation.

Format in all cases: in vivo
The subject of assay [1] is Diabrotica balteata. As to the kind of experiment: Diabrotica balteata spray test. Particulars: 168 h, application rate 160 μg/cavity (μg/well), wheat grains, after 7 days, read-out: efficacy. On the procedure: Diabrotica balteata—Spray Test
(§1) Solvent: • 78 parts by weight of acetone • 1.5 parts by weight of dimethylformamide
(§2) Emulsifier: alkylaryl polyglycol ether
(§3) To produce a suitable active compound preparation, 1 part by weight of active compound is dissolved using the stated parts by weight of solvent and made up with water containing an emulsifier concentration of 1000 ppm until the desired concentration is attained. To produce further test concentrations, the formulation is diluted with emulsifier-containing water.
Pre-swollen wheat grains (Triticum aestivum) are incubated in a multiwell plate filled with agar and a little water for one day (5 seed grains per well). The germinated wheat grains are sprayed with an active compound preparation of the desired concentration. Subsequently, each cavity is infected with 10-20 beetle larvae of Diabrotica balteata.
After 7 days, the efficacy in % is determined. 100% means that all wheat plants have grown as in the untreated, uninfected control; 0% means that no wheat plant has grown.

In assay [2] the test system is Spodoptera frugiperda. As to the kind of experiment: Spodoptera frugiperda spray test. The following applies: foliar, 168 h, application rate 100 g/ha, maize leaf discs, after 7 days, read-out: efficacy. On the procedure: Spodoptera frugiperda—Spray Test
(§4) Solvent: • 78.0 parts by weight of acetone • 1.5 parts by weight of dimethylformamide
as §2
To produce further test concentrations, the formulation is diluted with emulsifier-containing water.
After 7 days, the efficacy in % is determined. 100% means that all the caterpillars have been killed; 0% means that no caterpillar has been killed.

The subject of assay [3] is Meloidogyne incognita. In words: Meloidogyne incognita test. Particulars: 336 h, application rate 20 ppm, lettuce, after 14 days, formation of galls, read-out: nematicidal efficacy. Here is the method: Meloidouyne incognita Test
Solvent: 125.0 parts by weight of acetone
To produce a suitable active compound formulation, 1 part by weight of active compound is mixed with the stated amount of solvent and the concentrate is diluted to the desired concentration with water.
Vessels are filled with sand, active compound solution, an egg/larvae suspension of the southern root-knot nematode (Meloidogyne incognita) and lettuce seeds. The lettuce seeds germinate and the plants develop. The galls develop on the roots.
After 14 days, the nematicidal efficacy in % is determined by the formation of galls. 100% means that no galls were found; 0% means that the number of galls on the treated plants corresponds to the untreated control.

Assay [4] has as its system Myzus persicae. In words: Myzus persicae oral test. The following applies: 120 h, application rate 4 ppm, after 5 days, read-out: efficacy. On the procedure:
Solvent: 100 parts by weight of acetone
To produce a suitable preparation of active compound, 1 part by weight of active compound is dissolved using the specified parts by weight of solvent and made up with water until the desired concentration is attained.
50 μl of the active compound preparation are transferred into microtitre plates and made up to a final volume of 200 μl with 150 μl of IPL41 insect medium (33%+15% sugar). Subsequently, the plates are sealed with parafilm, which a mixed population of green peach aphids (Myzus persicae) within a second microtitre plate is able to puncture and imbibe the solution through it.
(§5) After 5 days, the efficacy in % is determined. 100% means that all the aphids have been killed; 0% means that no aphids have been killed.

Assay [5] has as its system Ctenocephalides felis. In words: Ctenocephalides felis oral test. The following applies: 48 h, application rate 100 ppm, in citrated cattle blood, after 2 days, read-out: efficacy (kill in %). Here is the method:
Ctenocephalides felis—Oral Test
Solvent: Dimethyl sulfoxide
To produce a suitable active compound formulation, 10 mg of active compound are mixed with 0.5 ml of dimethyl sulfoxide. Dilution with citrated cattle blood gives the desired concentration.
About 20 unfed adult cat fleas (Ctenocephalides felis) are placed into a chamber which is closed at the top and bottom with gauze. A metal cylinder whose bottom end is closed with parafilm is placed onto the chamber. The cylinder contains the blood/active compound formulation, which can be imbibed by the fleas through the parafilm membrane.
After 2 days, the kill in % is determined. 100% means that all of the fleas have been killed; 0% means that none of the fleas have been killed.

The subject of assay [6] is Ctenocephalides felis. In words: Ctenocephalides felis in vitro contact test with adult cat fleas. Particulars: application rate 5 μg/cm^2 (=500 g/ha); after 48 h; fleas dead or moribund. Here is the method:
Ctenocephalides felis—In Vitro Contact Tests with Adult Cat Fleas
For the coating of the test tubes, 9 mg of active compound are first dissolved in 1 ml of acetone p.a. and then diluted to the desired concentration with acetone p.a. 250 μl of the solution are distributed homogeneously on the inner walls and the base of a 25 ml glass tube by turning and rocking on an orbital shaker (rocking rotation at 30 rpm for 2 h). With 900 ppm of active compound solution and internal surface area 44.7 cm^2, given homogeneous distribution, an area-based dose of 5 μg/cm^2 is achieved.
After the solvent has evaporated off, the tubes are populated with 5-10 adult cat fleas (Ctenocephalides felis), sealed with a perforated plastic lid and incubated in a horizontal position at room temperature and ambient humidity. After 48 h, efficacy is determined. To this end, the tubes are stood upright and the fleas are knocked to the base of the tube. Fleas which remain motionless at the base or move in an uncoordinated manner are considered to be dead or moribund.
100% efficacy means that all the fleas were dead or moribund. 0% efficacy means that no fleas were harmed.

Assay [7] has as its system Myzus persicae. In words: Myzus persicae spray test. The following applies: foliar, 120 h, application rate 100 g/ha, Chinese cabbage leaf discs, after 5 days, read-out: efficacy. Here is the method:
Myzus persicae—Spray Test
as §1, §2, §3
Discs of Chinese cabbage leaves (Brassica pekinensis) infested by all stages of the green peach aphid (Myzus persicae) are sprayed with an active compound formulation of the desired concentration.
as §5

Assay [8] has as its system Phaedon cochleariae. As to the kind of experiment: Phaedon cochleariae spray test. Particulars: foliar, 168 h, application rate 100 g/ha, Chinese cabbage leaf discs, after 7 days, read-out: efficacy. Here is the method: Phaedon cochleariae—Spray Test
as §4, §2, §3
Discs of Chinese cabbage leaves (Brassica pekinensis) are sprayed with an active compound formulation of the desired concentration and, after drying, populated with larvae of the mustard beetle (Phaedon cochleariae).
After 7 days, the efficacy in % is determined. 100% means that all the beetle larvae have been killed; 0% means that no beetle larvae have been killed.

Assay [9] deals with Myzus persicae. As to the kind of experiment: Myzus persicae spray test on bell pepper plants (MYZUPE S). Particulars: 144 h, 6 dat, read-out: % Efficacy. On the procedure: Myzus persicae—Spray Test (MYZUPE S)
(§6) Solvent: 14 parts by weight of dimethylformamide
as §2
(§7) To produce a suitable active compound preparation, 1 part by weight of active compound is dissolved using the stated parts by weight of solvent and made up with water containing an emulsifier concentration of 1000 ppm until the desired concentration is attained. To produce further test concentrations, the formulation is diluted with emulsifier-containing water. If the addition of ammonium salts or/and penetrants is required, these are each added in a concentration of 1000 ppm to the formulation solution.
Bell pepper plants (Capsicum annuum) severely infested with the green peach aphid (Myzus persicae) are treated by spraying with the active compound formulation in the desired concentration.
After the desired time, the kill in % is determined. 100% means that all the animals have been killed; 0% means that no animals have been killed.

For assay [10], the system named is Aphis gossypii. As to the kind of experiment: Aphis gossypii spray test (APHIGO S). Particulars: 144 h, 6 dat, read-out: % Efficacy. On the procedure: Aphis gossypii—Spray Test (APHIGO S)
as §6, §2, §7
Cotton plants (Gossypium hirsutum) heavily infested by the cotton aphid (Aphis gossypii) are sprayed with an active compound formulation of the desired concentration.
After the desired time, the kill in % is determined. 100% means that all the aphids have been killed; 0% means that no aphids have been killed.

`CCS(=O)(=O)c1c(-c2nc3cc(C(F)(F)F)cnc3n2C)ncc2c(Br)cccc12` [Example I-004]: in [1], the pest or weed control at 160 µg/well came to 100%. For the same molecule, the pest or weed control at 100 g/ha in assay [2] turned out to be 100%. Also, in assay [3], the pest or weed control at 20 ppm was 90%. Moreover, in assay [4], the pest or weed control at 4 ppm was 100%.

Regarding `CCS(=O)(=O)c1c(-c2nc3cc(C(F)(F)C(F)(F)F)cnc3n2C)ncc2cc(Br)ccc12` [Example I-005], the pest or weed control at 160 µg/well in [1] came out at 80%. In addition, the pest or weed control at 100 ppm in [5] was 100%. Further, the efficacy in assay [6] was 100%. Further, in assay [2], the pest or weed control at 100 g/ha was 100%. In addition, in assay [3], the pest or weed control at 20 ppm came to 90%. For the same molecule, the pest or weed control at 4 ppm in [4] stood at 100%.

Regarding `CCS(=O)(=O)c1c(-c2nc3cc(C(F)(F)C(F)(F)F)cnc3n2C)ncc2c(Br)cccc12` [Example I-006], the pest or weed control at 160 µg/well in assay [1] was 100%. In addition, the pest or weed control at 100 g/ha in assay [7] and in assay [2] was 100% in each case. Besides, the pest or weed control at 20 ppm in assay [3] worked out at 90%. Besides, the pest or weed control at 4 ppm in [4] was determined as 90%.

As to `CCS(=O)(=O)c1c(-c2nc3cc(C(F)(F)F)nnc3n2C)ncc2cc(Cl)ccc12` [Example I-008], the pest or weed control at 100 ppm in assay [5] is 100%. The pest or weed control at 100 g/ha in [2] and in assay [8] was 100% each time. Further, the pest or weed control at 20 ppm in assay [3] is 100%. Also, in assay [4], the pest or weed control at 4 ppm stood at 100%.

Consider `CCS(=O)(=O)c1c(-c2nc3cc(C(F)(F)C(F)(F)F)ncc3n2C)ncc2c(C(F)(F)F)cccc12` [Example I-012], for which, in [5], the pest or weed control at 100 ppm amounted to 100%. The same molecule registered an efficacy in assay [6] of 90%. Moreover, the pest or weed control at 100 g/ha in [7] was 90%; in [2] it was 100%; in assay [8] it was 100%. The pest or weed control at 4 ppm in [4] turned out to be 100%.

For `CCS(=O)(=O)c1c(-c2nc3cc(C(F)(F)F)ncc3n2C)ncc2c(C(F)(F)F)cccc12` [Example I-013], in [5], the pest or weed control at 100 ppm was 100%. Moreover, the pest or weed control at 100 g/ha in assay [7], in assay [2] and in assay [8] was 100% each time. Besides, the pest or weed control at 4 ppm in assay [4] stood at 100%.

Consider `CCS(=O)(=O)c1c(-c2nc3cc(C(F)(F)F)cnc3n2C)ncc2cc(C)ccc12` [Example I-015], for which, in assay [9] (0.8 ppm), the Emax at 0.8 ppm was found to be 25%. The Emax at 4 ppm in assay [9] (4 ppm) and in assay [10] was 100% throughout. For the same molecule, the pest or weed control at 100 g/ha in [2] is 83%. Moreover, the pest or weed control at 4 ppm in [4] is 100%.

On to `CCS(=O)(=O)c1c(-c2nc3cc(C(F)(F)C(F)(F)F)ncc3n2C)ncc2c(C#N)cccc12` [Example I-020], for which the pest or weed control at 160 µg/well in assay [1] came to 100%. Also, the pest or weed control at 100 g/ha in assay [7] came to 90%; in assay [2], 100%. The pest or weed control at 20 ppm in assay [3] was found to be 90%. Further, the pest or weed control at 4 ppm in [4] turned out to be 100%.

For `CCS(=O)(=O)c1c(-c2nc3cc(OC(F)(F)F)cnc3n2C)ncc2c(C(F)(F)F)cccc12` [Example I-024], the pest or weed control at 100 ppm in assay [5] is 80%. In addition, the pest or weed control at 100 g/ha in assay [7] came to 90%; in [2], 100%; in assay [8], 100%. For the same molecule, in [4], the pest or weed control at 4 ppm amounted to 100%.

Turning to `CCS(=O)(=O)c1c(-c2nc3cc(C(F)(F)F)nnc3n2C)ncc2cc(C(F)(F)F)ccc12` [Example I-025], the pest or weed control at 160 µg/well in assay [1] stood at 100%. The pest or weed control at 100 ppm in [5] is 100%. The molecule further came in with an efficacy in assay [6] of 100%. Moreover, the pest or weed control at 100 g/ha in [7] is 90%; in [2] it was 100%. Also, the pest or weed control at 4 ppm in assay [4] was 100%.

As to `CCS(=O)(=O)c1c(-c2nc3cc(C(F)(F)F)cnc3n2C)ncc2c(C#N)cccc12` [Example I-026], the pest or weed control at 100 g/ha in assay [7], in assay [2] and in assay [8] was 100% throughout. Besides, in assay [3], the pest or weed control at 20 ppm was 90%. Moreover, the pest or weed control at 4 ppm in assay [4] worked out at 90%.

For the molecule `CCS(=O)(=O)c1c(-c2nc3cc(C(F)(F)F)nnc3n2C)ncc2c(Br)cccc12` [Example I-027], in assay [1], the pest or weed control at 160 µg/well was 100%. The figures for the pest or weed control at 100 g/ha in assay [7] and in [2] were 70% and 100%, respectively. In assay [3], the pest or weed control at 20 ppm came out at 100%. In addition, in [4], the pest or weed control at 4 ppm turned out to be 100%.

Take `CCS(=O)(=O)c1c(-c2nc3cc(C(F)(F)F)nnc3n2C)ncc2cc(C(F)F)ccc12` [Example I-041]: the pest or weed control at 160 µg/well in assay [1] was 100%. Moreover, the figures for the pest or weed control at 100 g/ha in assay [7] and in assay [2] were 90% and 100%, respectively. The pest or weed control at 20 ppm in assay [3] is 100%. In assay [4], the pest or weed control at 4 ppm came to 100%.

As for `CCS(=O)(=O)c1c(-c2nc3cc(C(F)(F)F)nnc3n2C)ncc2ccc(C(F)F)cc12` [Example I-042], the pest or weed control at 160 µg/well in [1] was determined as 100%. For the same molecule, the pest or weed control at 100 g/ha came to 100% in assay [7] and 83% in [2]. The pest or weed control at 20 ppm in assay [3] worked out at 90%. In addition, the pest or weed control at 4 ppm in [4] turned out to be 100%.

The values are drawn from patent US20230060425A1, “FUSED BICYCLIC HETEROCYCLE DERIVATIVES AS PESTICIDES” (Bayer Aktiengesellschaft, priority 2019, published 2023).
